Experimental data from patent US12673975B2, “Cyclic peptide, cell scaffold material, cell separating material, and medium” (FUJIFILM Corporation, priority 2019, dated 2026).
Like-named read-outs stand apart in the source and are kept apart here. Starred links: 1 amine or outer side, 2 acyl side, 3 side chain; linkers in the order of their positions; H or OH if unused. Positions of bridges follow the written chain, without caps; N, C: chain ends. Non-standard residues stand in square brackets, D forms with d. Residues, ends and D or L forms follow the SMILES beside them. hCys = N[C@@H](CCS)C(=O)O; Dab = NCC[C@H](N)C(=O)O; Dap = NC[C@H](N)C(=O)O; X2 = O=C(C[*:1])[*:2]

Columns and labels:
human integrin αvβ5 = human integrin αvβ5 (Homo sapiens, UniProt P06756+P18084); assay: Evaluation of integrin binding property (surface plasmon resonance, Biacore 3000, immobilized cyclic peptide)
Description: A commercially available CMS (a carboxymethyl dextran introduction type, manufactured by GE Healthcare) sensor chip was set in Biacore 3000, which is a surface plasmon resonance apparatus manufactured by GE Healthcare, the sensor was stabilized at a flow rate of 10 μL/min of a HEPES (4-(2-hydroxyethyl)-1-piperazineethanesulfonic acid) buffer solution (20 mM HEPES-HCl, 150 mM NaCl, pH 7.4) for surface plasmon resonance (SPR), and 70 μL of a mixed aqueous solution of 0.2 M 1-(3-dimethylaminopropyl)-3-ethylcarbodiimide (EDC) and 0.04 M N-hydroxysuccinimide (NHS) was added thereto. Here, the concentration unit M represents mol/L, and the same applies hereinafter. Then, 20 μL of the sample solution of each of the above cyclic peptides diluted to 0.2 g/L with the HEPES buffer solution was supplied to the sensor chip, blocking treatment was subsequently carried out with an ethanolamine solution, and washing was carried out with a sodium hydroxide aqueous solution, whereby immobilization was carried out. However, only for the cyclic peptides 125, 126, and 127, in which the number of lysine residues having an amino group as the immobilizing functional group was zero, the amount of the sample solution to be supplied to the sensor chip was set to 500 μL instead of 20 μL. Further, 70 μL of the mixed aqueous solution of 0.2 M EDC and 0.04 M NHS was added to another flow channel of the same sensor chip without immobilizing the sample, and then blocking treatment and washing treatment were carried out. Hereinafter, the obtained immobilization-treated sensor chip is referred to as an “immobilization-treated sensor chip A”.
After adding human integrin αvβ5 for 10 minutes at 25° C., which was diluted to 30 nM using a HEPES buffer solution to which magnesium chloride was added to 5 mM, in each flow channel of the immobilization-treated sensor chip A prepared in (1) above, the same HEPES buffer solution (containing 5 mM magnesium chloride) was allowed to flow as a running buffer for 30 minutes, and measurement was carried out with Biacore 3000. Then, a regeneration treatment of removing human integrin αvβ5 was carried out by allowing a 0.5 M EDTA aqueous solution to flow through each flow channel for 10 minutes. Further, the above-described measurement process consisting of adding integrin for 10 minutes, allowing a running buffer to flow for 30 minutes, carrying out measurement with Biacore 3000, and carrying out regeneration treatment with 0.5 M EDTA aqueous solution was carried out in the same manner for 100 nM human integrin αvβ5, 300 nM human integrin αvβ5, and 1,000 nM human integrin αvβ5. Dissociation constant between the cyclic peptide and human integrin αvβ5 was calculated from the difference between the value measured by Biacore 3000 in the flow channel immobilized with the cyclic peptide and the value measured by Biacore 3000 in the flow channel unimmobilized with the cyclic peptide, in a case where each concentration of human integrin αvβ5 was allowed to flow, and the integrin binding property was evaluated according to the following evaluation standards. It is preferable that the evaluation result satisfies the evaluation standard A, B, or C.

[1] = Evaluation of molecule stability (alkali treatment, residual rate by LC/MS); type: physicochemical; details: for Performance evaluation: Stability (residual rate of cyclic peptide after alkali treatment): 500 μM peptide aqueous solution plus equivalent of 1 M sodium hydroxide, 15° C., 3 hours, LC/MS peak area; for Stability (molecule stability, residual rate of the cyclic peptide rank): alkali treatment, residual rate by LC/MS
Description: The molecule stability of the cyclic peptide was evaluated by analyzing the alkali-treated cyclic peptide aqueous solution by liquid chromatography mass spectroscopy (LC/MS).
The alkali treatment was carried out by the following method. A 500 μM cyclic peptide aqueous solution was prepared, an equivalent of 1 M sodium hydroxide aqueous solution was added to this aqueous solution, and the resultant mixture was incubated at 15° C. for 3 hours to obtain an alkali-treated cyclic peptide aqueous solution. The cyclic peptide residual rate was calculated by setting the total area of all peaks of the cyclic peptide before alkali treatment in LC/MS to 100% and determining the proportion of the total area of all peaks in LC/MS of the alkali-treated cyclic peptide aqueous solution, and the molecule stability was evaluated according to the following evaluation standards. It is preferable that the evaluation result satisfies the evaluation standard A, B, or C.
The conditions of the LC/MS used for the evaluation of molecule stability were set as follows. • LC apparatus: Prominence series (pump, column oven, autosampler, detector) (manufactured by Shimadzu Corporation) • MS detector: LC/MS2010EV (manufactured by Shimadzu Corporation) • Column: Cadenza CD-C18, inner diameter 2.0 mm×length 250 mm, particle size: 3 μm (manufactured by Imtakt Corporation) • Eluent A: a solution (pH 3) containing 10 mM ammonium formate as a solute, where the solvent is 100% water. • Eluent B: a solution (pH 3) containing 10 mM ammonium formate as a solute, where the solvent is acetonitrile/water=90/10. • Flow rate: 0.2 mL/min • Injection volume: 4 μL • Gradient: 0% to 30%: Eluent B (0 to 30 minutes), 100%: Eluent B (30 to 40 minutes), 0%: Eluent B (40 to 60 minutes) • Column temperature: 45° C. • Ionization method: electrospray ionization (ESI) positive, ESI negative

[2] = SPR, 25° C., HEPES buffer with 5 mM magnesium chloride, integrin 30-1,000 nM, read-out: Performance evaluation: Binding activity (dissociation constant between the cyclic peptide and human integrin αvβ5)
[3] = surface plasmon resonance, immobilized cyclic peptide, human integrin αvβ5, read-out: Binding activity (integrin binding property, dissociation constant rank)

Sequence of human integrin αvβ5 (P06756 31-1048): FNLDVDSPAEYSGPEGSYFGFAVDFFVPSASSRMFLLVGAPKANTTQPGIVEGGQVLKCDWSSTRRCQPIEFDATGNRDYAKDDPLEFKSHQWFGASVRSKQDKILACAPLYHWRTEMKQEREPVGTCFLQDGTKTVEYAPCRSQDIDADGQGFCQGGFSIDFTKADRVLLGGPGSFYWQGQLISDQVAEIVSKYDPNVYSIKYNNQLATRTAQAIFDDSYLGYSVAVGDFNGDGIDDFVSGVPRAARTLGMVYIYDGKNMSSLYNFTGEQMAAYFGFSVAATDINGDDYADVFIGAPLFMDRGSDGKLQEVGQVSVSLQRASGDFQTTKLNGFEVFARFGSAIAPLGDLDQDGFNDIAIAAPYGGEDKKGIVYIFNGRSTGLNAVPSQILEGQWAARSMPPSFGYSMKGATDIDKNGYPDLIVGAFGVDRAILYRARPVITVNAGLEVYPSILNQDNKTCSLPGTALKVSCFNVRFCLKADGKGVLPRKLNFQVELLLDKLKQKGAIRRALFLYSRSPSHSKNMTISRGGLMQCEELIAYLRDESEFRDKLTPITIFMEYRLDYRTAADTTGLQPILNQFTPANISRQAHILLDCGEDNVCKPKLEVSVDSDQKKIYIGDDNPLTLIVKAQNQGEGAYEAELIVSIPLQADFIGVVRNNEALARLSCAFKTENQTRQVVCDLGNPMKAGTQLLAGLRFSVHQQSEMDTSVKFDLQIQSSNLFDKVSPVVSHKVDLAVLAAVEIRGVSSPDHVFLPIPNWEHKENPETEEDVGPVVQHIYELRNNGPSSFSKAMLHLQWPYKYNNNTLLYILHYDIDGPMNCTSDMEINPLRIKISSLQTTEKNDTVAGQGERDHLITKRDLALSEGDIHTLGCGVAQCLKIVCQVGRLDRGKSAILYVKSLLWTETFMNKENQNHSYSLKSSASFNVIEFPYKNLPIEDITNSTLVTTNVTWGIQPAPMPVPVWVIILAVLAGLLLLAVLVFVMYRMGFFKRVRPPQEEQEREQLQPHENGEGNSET
Sequence of human integrin αvβ5 (P18084 24-799): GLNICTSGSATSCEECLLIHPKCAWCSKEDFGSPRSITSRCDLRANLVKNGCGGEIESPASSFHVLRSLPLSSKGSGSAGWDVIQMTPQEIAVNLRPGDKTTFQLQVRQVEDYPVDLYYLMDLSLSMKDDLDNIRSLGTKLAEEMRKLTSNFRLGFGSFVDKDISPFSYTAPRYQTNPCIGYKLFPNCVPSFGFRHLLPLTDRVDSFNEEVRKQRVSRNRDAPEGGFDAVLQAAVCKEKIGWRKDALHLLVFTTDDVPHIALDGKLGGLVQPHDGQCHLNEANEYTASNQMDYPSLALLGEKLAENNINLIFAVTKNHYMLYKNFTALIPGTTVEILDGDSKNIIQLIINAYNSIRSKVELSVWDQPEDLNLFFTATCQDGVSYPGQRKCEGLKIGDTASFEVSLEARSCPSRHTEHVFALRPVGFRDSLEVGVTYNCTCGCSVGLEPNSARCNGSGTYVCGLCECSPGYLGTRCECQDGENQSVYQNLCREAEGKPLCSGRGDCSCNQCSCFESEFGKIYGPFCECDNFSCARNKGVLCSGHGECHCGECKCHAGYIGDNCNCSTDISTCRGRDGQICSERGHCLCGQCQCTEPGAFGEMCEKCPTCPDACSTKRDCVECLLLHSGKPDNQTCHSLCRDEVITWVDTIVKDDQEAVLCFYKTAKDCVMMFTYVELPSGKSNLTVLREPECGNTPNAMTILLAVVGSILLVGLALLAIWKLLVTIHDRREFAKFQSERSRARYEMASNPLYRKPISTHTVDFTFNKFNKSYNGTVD

For `CC[C@H](C)[C@@H]1NC(=O)[C@@H](NC(=O)CNC(=O)[C@H](CCCCN)NC(=O)[C@H](CCCCN)NC(=O)[C@@H](N)CCCCN)CCSCC(=O)NCC[C@@H](C(=O)N[C@@H](C)C(=O)O)NC(=O)[C@H](C)NC(=O)[C@H](Cc2ccccc2)NC(=O)[C@H]([C@@H](C)O)NC(=O)[C@H](CC(=O)O)NC(=O)CNC(=O)[C@H](CCCNC(=N)N)NC(=O)[C@@H]2CCCN2C1=O` [Cyclic peptide 86, KKKG-(Hcy)-IPRGDTFA(Dab(acetyl))A] (H-KKKG[hCys]IPRGDTFA[Dab]A-OH; linker 5-14 via X2), the Kd (human integrin αvβ5; [2]) was < 0.05 µM and the “Performance evaluation: Stability (residual rate of cyclic peptide after alkali treatment)” value [1] was “A (The residual rate of the cyclic peptide is 70% or more.)”.

With `CC[C@H](C)[C@@H]1NC(=O)[C@@H](NC(=O)[C@H](C)NC(=O)[C@H](CCCCN)NC(=O)[C@H](CCCCN)NC(=O)[C@@H](N)CCCCN)CCSCC(=O)NCC[C@@H](C(=O)N[C@@H](C)C(=O)O)NC(=O)[C@H](CCCNC(=N)N)NC(=O)[C@H](Cc2ccccc2)NC(=O)[C@H]([C@@H](C)O)NC(=O)[C@H](CC(=O)O)NC(=O)CNC(=O)[C@H](CCCNC(=N)N)NC(=O)[C@@H]2CCCN2C1=O` [Cyclic peptide 56, KKKA-(Hcy)-IPRGDTFR(Dab(acetyl))A] (H-KKKA[hCys]IPRGDTFR[Dab]A-OH; linker 5-14 via X2) the Kd (human integrin αvβ5; [2]) was < 0.05 µM and the “Performance evaluation: Stability (residual rate of cyclic peptide after alkali treatment)” value [1] was “A (The residual rate of the cyclic peptide is 70% or more.)”.

With `N=C(N)NCCC[C@@H]1NC(=O)[C@H](Cc2ccc(O)cc2)NC(=O)[C@H](CC(N)=O)NC(=O)[C@H](CC(=O)O)NC(=O)CNC(=O)[C@H](CCCNC(=N)N)NC(=O)[C@@H]2CCCN2C(=O)[C@H](CCC(=O)O)NC(=O)[C@@H](NC(=O)CNC(=O)[C@H](CCCCN)NC(=O)[C@H](CCCCN)NC(=O)[C@@H](N)CCCCN)CCSCC(=O)NCC[C@@H](C(=O)N[C@@H](CC(=O)O)C(=O)O)NC1=O` [Cyclic peptide 37, KKKG-(Hcy)-EPRGDNYR(Dab(acetyl))D] (H-KKKG[hCys]EPRGDNYR[Dab]D-OH; linker 5-14 via X2) the Kd (human integrin αvβ5; [2]) was 0.05 to 0.1 µM and the “Performance evaluation: Stability (residual rate of cyclic peptide after alkali treatment)” value [1] was “A (The residual rate of the cyclic peptide is 70% or more.)”.

With `C[C@H](NC(=O)[C@H](CCCCN)NC(=O)[C@H](CCCCN)NC(=O)[C@@H](N)CCCCN)C(=O)N[C@H]1CCSCC(=O)NCC[C@@H](C(=O)N[C@@H](CC(=O)O)C(=O)O)NC(=O)[C@H](CCCNC(=N)N)NC(=O)[C@H](Cc2ccc(O)cc2)NC(=O)[C@H](CC(N)=O)NC(=O)[C@H](CC(=O)O)NC(=O)CNC(=O)[C@H](CCCNC(=N)N)NC(=O)[C@@H]2CCCN2C(=O)[C@H](CCC(=O)O)NC1=O` [Cyclic peptide 42, KKKA-(Hcy)-EPRGDNYR(Dab(acetyl))D] (H-KKKA[hCys]EPRGDNYR[Dab]D-OH; linker 5-14 via X2) the Kd (human integrin αvβ5; [2]) was 0.05 to 0.1 µM and the “Performance evaluation: Stability (residual rate of cyclic peptide after alkali treatment)” value [1] was “A (The residual rate of the cyclic peptide is 70% or more.)”.

For `CC[C@H](C)[C@@H]1NC(=O)[C@@H](NC(=O)CNC(=O)[C@H](CCCCN)NC(=O)[C@H](CCCCN)NC(=O)[C@@H](N)CCCCN)CCSCC(=O)NC[C@@H](C(=O)N[C@@H](C)C(=O)O)NC(=O)[C@H](CCCNC(=N)N)NC(=O)[C@H](Cc2ccccc2)NC(=O)[C@H]([C@@H](C)O)NC(=O)[C@H](CC(=O)O)NC(=O)CNC(=O)[C@H](CCCNC(=N)N)NC(=O)[C@@H]2CCCN2C1=O` [Cyclic peptide 114, KKKG-(Hcy)-IPRGDTFR(Dap(acetyl))A] (H-KKKG[hCys]IPRGDTFR[Dap]A-OH; linker 5-14 via X2), the Kd (human integrin αvβ5; [3]) was < 0.05 µM and the “Stability (molecule stability, residual rate of the cyclic peptide rank)” value [1] was “B (The residual rate of the cyclic peptide is 50% or more and less than 70%.)”.

With `CC(C)C[C@@H]1NC(=O)[C@@H](NC(=O)CNC(=O)[C@H](CCCCN)NC(=O)[C@H](CCCCN)NC(=O)[C@@H](N)CCCCN)CCSCC(=O)NCC[C@@H](C(=O)N[C@@H](C)C(=O)O)NC(=O)[C@H](CCCNC(=N)N)NC(=O)[C@H](Cc2ccccc2)NC(=O)[C@H](CC(N)=O)NC(=O)[C@H](CC(=O)O)NC(=O)CNC(=O)[C@H](CCCNC(=N)N)NC(=O)[C@@H]2CCCN2C1=O` [Cyclic peptide 27, KKKG-(Hcy)-LPRGDNFR(Dab(acetyl))A] (H-KKKG[hCys]LPRGDNFR[Dab]A-OH; linker 5-14 via X2) the Kd (human integrin αvβ5; [2]) was < 0.05 µM and the “Performance evaluation: Stability (residual rate of cyclic peptide after alkali treatment)” value [1] was “A (The residual rate of the cyclic peptide is 70% or more.)”.

For `N=C(N)NCCC[C@@H]1NC(=O)[C@H](Cc2ccc(O)cc2)NC(=O)[C@H](CC(N)=O)NC(=O)[C@H](CC(=O)O)NC(=O)CNC(=O)[C@H](CCCNC(=N)N)NC(=O)[C@@H]2CCCN2C(=O)[C@H](CCC(=O)O)NC(=O)[C@@H](NC(=O)[C@H](CCCCN)NC(=O)[C@H](CCCCN)NC(=O)[C@@H](N)CCCCN)CCSCC(=O)NCC[C@@H](C(=O)O)NC1=O` [Cyclic peptide 44, KKK-(Hcy)-EPRGDNYR(Dab(acetyl))] (H-KKK[hCys]EPRGDNYR[Dab]-OH; linker 4-13 via X2), the Kd (human integrin αvβ5; [2]) was 0.05 to 0.1 µM and the “Performance evaluation: Stability (residual rate of cyclic peptide after alkali treatment)” value [1] was “A (The residual rate of the cyclic peptide is 70% or more.)”.

For `CC(C)[C@@H]1NC(=O)[C@@H](NC(=O)[C@H](CCCCN)NC(=O)[C@H](CCCCN)NC(=O)[C@@H](N)CCCCN)CCSCC(=O)NCC[C@@H](C(=O)O)NC(=O)[C@H](C)NC(=O)[C@H](Cc2ccccc2)NC(=O)[C@H]([C@@H](C)O)NC(=O)[C@H](CC(=O)O)NC(=O)CNC(=O)[C@H](CCCNC(=N)N)NC(=O)[C@H]([C@@H](C)O)NC1=O` [Cyclic peptide 150, KKK-(Hcy)-VTRGDTFA(Dab(acetyl))] (H-KKK[hCys]VTRGDTFA[Dab]-OH; linker 4-13 via X2), the Kd (human integrin αvβ5; [3]) was < 0.05 µM and the “Stability (molecule stability, residual rate of the cyclic peptide rank)” value [1] was “A (The residual rate of the cyclic peptide is 70% or more.)”.

For `CC[C@H](C)[C@@H]1NC(=O)[C@@H](NC(=O)[C@H](C)NC(=O)[C@H](CCCCN)NC(=O)[C@H](CCCCN)NC(=O)[C@@H](N)CCCCN)CCSCC(=O)NCC[C@@H](C(=O)N[C@@H](C)C(=O)O)NC(=O)[C@H](CCCNC(=N)N)NC(=O)[C@H](Cc2ccccc2)NC(=O)[C@H]([C@@H](C)O)NC(=O)[C@H](CC(=O)O)NC(=O)CNC(=O)[C@H](CCCNC(=N)N)NC(=O)[C@H](CO)NC1=O` [Cyclic peptide 77, KKKA-(Hcy)-ISRGDTFR(Dab(acetyl))A] (H-KKKA[hCys]ISRGDTFR[Dab]A-OH; linker 5-14 via X2), the Kd (human integrin αvβ5; [2]) was < 0.05 µM and the “Performance evaluation: Stability (residual rate of cyclic peptide after alkali treatment)” value [1] was “A (The residual rate of the cyclic peptide is 70% or more.)”.
